Test results reported in patent US7109193B2, “Tricyclic diazepines tocolytic oxytocin receptor antagonists” (Wyeth, priority 2001, dated 2006).

Tests used:
[1] = target: T1, human vasopressin V1a receptor subtype (Homo sapiens, UniProt P37288); experiment: Vasopressin binding in Chinese Hamster Ovary cell membranes expressing human vasopressin V1a subtype receptors; conditions: CHO cell membranes, [3H]Manning ligand, values in parentheses
T1 construct: host or cells: CHO cells (pZeoSV vector for the Thibonnier line)
Summary of the method: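 Membranes from CHO cells expressing human V1a receptor were incubated with [3H]Manning ligand (added as 20 μL of 8 nM) in pH 7.4 Tris buffer with MgCl2, BSA and protease inhibitors, 60 min at room temperature. Bound radioactivity was counted after filtration; values are percent inhibition at a stated concentration or IC50.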

T1 sequence (P37288 whole entry): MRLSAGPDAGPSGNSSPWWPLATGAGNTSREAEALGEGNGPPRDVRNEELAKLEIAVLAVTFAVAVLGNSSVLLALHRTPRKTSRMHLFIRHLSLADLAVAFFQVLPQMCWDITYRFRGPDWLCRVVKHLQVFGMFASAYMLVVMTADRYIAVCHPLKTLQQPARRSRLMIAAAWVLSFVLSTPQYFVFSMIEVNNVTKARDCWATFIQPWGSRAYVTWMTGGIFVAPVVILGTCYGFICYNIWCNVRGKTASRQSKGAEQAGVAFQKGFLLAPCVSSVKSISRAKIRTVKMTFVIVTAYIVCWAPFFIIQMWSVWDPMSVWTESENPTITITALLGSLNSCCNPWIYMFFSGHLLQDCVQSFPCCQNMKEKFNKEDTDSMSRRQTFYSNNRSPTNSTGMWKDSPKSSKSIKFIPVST

COc1cc(C(=O)N2Cc3ccc(C(=O)N(C)CCCN(C)C)n3Cc3ccccc32)ccc1-c1ccccc1C(F)(F)F [Example 21, N-Methyl-[N-(3-dimethylamino)propyl]-10-{[2-methoxy-2′-trifluoromethyl-[1,1′-biphenyl]-4-yl]carbonyl}-10,11-dihydro-5H-pyrrolo[2,1-c][1,4]benzodiazepin-3-carboxamide]
IC50 [1]: 0.378 µM
melting point: 140 to 142 °C

COc1cc(C(=O)N2Cc3ccc(C(=O)N(C)CCN(C)C)n3Cc3ccccc32)ccc1-c1ccccc1C(F)(F)F [Example 22, N-Methyl-[N-(2-dimethylamino)ethyl]-10-{[2-methoxy-2′-trifluoromethyl-[1,1′-biphenyl]-4-yl]carbonyl}-10,11-dihydro-5H-pyrrolo[2,1-c][1,4]benzodiazepine-3-carboxamide]
IC50 [1]: 0.225 µM
melting point: 187 to 190 °C

O=C(c1ccc(-c2cccc3ccccc23)cc1Cl)N1Cc2cccn2Cc2ccccc21 [Example 24, [2-Chloro-4-(naphthalen-1-yl)phenyl][10,11-dihydro-5H-pyrrolo[2,1-c][1,4]benzodiazepin-10-yl]methanone]
IC50 [1]: 0.0225 µM
melting point: 115 to 117.5 °C

Cc1ccc(-c2ccc(C(=O)N3Cc4cccn4Cc4ccccc43)cc2)c2ccccc12 [Example 25, [4-(4-Methyl-naphthalen-1-yl)phenyl][10,11-dihydro-5H-pyrrolo[2,1-c][1,4]benzodiazepin-10-yl]methanone]
IC50 [1]: 0.131 µM
melting point: 160 to 162 °C

COc1cc(C(=O)N2Cc3cccn3Cc3ccccc32)ccc1-n1c(C)ccc1C [Example 27, [4-(2,5-Dimethyl-1-H-pyrrol-1-yl)-3-methoxy-phenyl][10,11-dihydro-5H-pyrrolo[2,1-c][1,4]benzodiazepin-10-yl]methanone]
IC50 [1]: 0.0456 µM
melting point: 141 to 144 °C

O=C(c1ccc(-c2cccc3ccccc23)nc1)N1Cc2cccn2Cc2ccccc21 [Example 28, [6-(Naphthalen-1-yl)-pyridin-3-yl]-[10,11-dihydro-5H-pyrrolo[2,1-c][1,4]benzodiazepin-10-yl]methanone]
IC50 [1]: 0.0666 µM
melting point: 155 to 158 °C
